Data from US7728012B2, “Carboxamide compounds and their use as calpain inhibitors” (Abbott GmbH & Co. KG, priority 2006, dated 2010).

Legend:
Assay type in all cases: biochemical
[1] = target: T1, calpain-I isolated from human erythrocytes (Homo sapiens, UniProt P07384); assay: Calpain I kinetic fluorescence enzyme inhibition assay; conditions: apparent Ki from IC50 by Cheng-Prussoff; average of 2 to 4 dose-effect plots
T1 construct: calpain-I—isolated from human erythrocytes; purchased Calbiochem 208713; host or cells: human erythrocytes (tissue isolate)
T1 sequence (P07384 1-714): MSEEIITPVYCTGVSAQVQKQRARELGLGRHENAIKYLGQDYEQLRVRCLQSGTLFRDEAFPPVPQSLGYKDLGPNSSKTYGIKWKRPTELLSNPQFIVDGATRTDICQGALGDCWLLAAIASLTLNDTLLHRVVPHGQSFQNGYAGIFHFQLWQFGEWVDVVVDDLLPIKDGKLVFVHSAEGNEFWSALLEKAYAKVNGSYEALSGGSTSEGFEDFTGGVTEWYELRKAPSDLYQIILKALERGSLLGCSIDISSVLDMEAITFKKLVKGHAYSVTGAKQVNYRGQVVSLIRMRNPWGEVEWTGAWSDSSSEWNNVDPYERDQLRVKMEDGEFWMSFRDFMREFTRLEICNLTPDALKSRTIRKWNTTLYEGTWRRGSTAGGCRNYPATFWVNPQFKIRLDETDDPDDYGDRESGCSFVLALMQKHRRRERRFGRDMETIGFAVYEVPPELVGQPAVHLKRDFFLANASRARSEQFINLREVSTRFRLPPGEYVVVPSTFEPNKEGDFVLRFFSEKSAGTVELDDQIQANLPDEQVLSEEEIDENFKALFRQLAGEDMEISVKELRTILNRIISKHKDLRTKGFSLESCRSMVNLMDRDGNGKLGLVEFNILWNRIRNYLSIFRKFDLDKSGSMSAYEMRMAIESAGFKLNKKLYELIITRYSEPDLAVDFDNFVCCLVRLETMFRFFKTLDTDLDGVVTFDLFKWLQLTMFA
T1 sequence (P04632 1-268 partner): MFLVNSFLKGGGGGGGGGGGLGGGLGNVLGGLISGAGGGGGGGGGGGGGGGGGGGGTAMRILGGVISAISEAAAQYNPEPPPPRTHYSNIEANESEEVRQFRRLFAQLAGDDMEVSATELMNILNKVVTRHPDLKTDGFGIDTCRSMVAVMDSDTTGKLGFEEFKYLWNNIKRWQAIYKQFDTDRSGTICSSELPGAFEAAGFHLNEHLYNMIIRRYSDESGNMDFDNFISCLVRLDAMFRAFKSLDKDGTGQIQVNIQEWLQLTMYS

[2] = target: T2, cathepsin B isolated from human liver (Homo sapiens, UniProt P07858); assay: Cathepsin B kinetic fluorescence enzyme inhibition assay; conditions: selectivity ratio versus calpain I
T2 construct: cathepsin B—isolated from human liver; purchased Calbiochem 219362; host or cells: human liver (tissue isolate)
Method in brief: (§1)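 Inhibition is measured at room temperature in cysteine-containing MES buffer, pH 6.0, by continuous fluorescence at 460 nm. Cathepsin S (0.5 nM) uses 20 μM Z-Val-Val-Arg-AMC; L (1 nM) and B (0.25 nM) use Z-Phe-Arg-AMC at 2 and 100 μM respectively.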

[3] = target: T3, cathepsin K activated from recombinant human procathepsin K (Homo sapiens, UniProt P43235); assay: Cathepsin K kinetic fluorescence enzyme inhibition assay; conditions: selectivity ratio versus calpain I
T3 construct: purchased Calbiochem 342001; host or cells: E. coli
T3 sequence (P43235 115-329): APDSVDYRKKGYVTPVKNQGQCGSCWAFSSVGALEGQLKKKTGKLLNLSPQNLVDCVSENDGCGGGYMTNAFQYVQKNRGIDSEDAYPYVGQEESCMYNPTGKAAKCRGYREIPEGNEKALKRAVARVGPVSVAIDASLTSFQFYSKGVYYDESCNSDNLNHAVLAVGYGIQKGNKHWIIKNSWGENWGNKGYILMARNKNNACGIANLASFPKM

[4] = target: T4, cathepsin L isolated from human liver (Homo sapiens, UniProt P07711); assay: Cathepsin L kinetic fluorescence enzyme inhibition assay; conditions: selectivity ratio versus calpain I
T4 construct: cathepsin L—isolated from human liver; purchased Calbiochem 219402; host or cells: human liver (tissue isolate)
T4 sequence (P07711 114-333): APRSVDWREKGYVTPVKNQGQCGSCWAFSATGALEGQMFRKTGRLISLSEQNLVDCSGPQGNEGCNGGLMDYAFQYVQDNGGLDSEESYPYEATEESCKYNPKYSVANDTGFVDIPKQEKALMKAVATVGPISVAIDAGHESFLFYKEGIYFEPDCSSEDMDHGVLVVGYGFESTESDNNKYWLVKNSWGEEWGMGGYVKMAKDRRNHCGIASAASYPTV
Method in brief: as §1

[5] = target: T5, recombinant human cathepsin S (Homo sapiens, UniProt P25774); assay: Cathepsin S kinetic fluorescence enzyme inhibition assay; conditions: selectivity ratio versus calpain I
T5 construct: purchased Calbiochem 219343; host or cells: E. coli
T5 sequence (P25774 115-331): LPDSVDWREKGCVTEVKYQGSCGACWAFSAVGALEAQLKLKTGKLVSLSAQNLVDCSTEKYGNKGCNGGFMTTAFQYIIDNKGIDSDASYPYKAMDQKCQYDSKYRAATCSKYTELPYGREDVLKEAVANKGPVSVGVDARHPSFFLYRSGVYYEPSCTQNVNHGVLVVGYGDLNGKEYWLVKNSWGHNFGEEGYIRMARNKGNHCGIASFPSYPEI
Method in brief: as §1

| SMILES | Ki [1] | Sel cat. B (Ki(cathepsin B)/Ki(calpain) ratio) [2] | Sel cat. K (Ki(cathepsin K)/Ki(calpain) ratio) [3] | Sel cat. L (Ki(cathepsin L)/Ki(calpain) ratio) [4] | Sel cat. S (Ki(cathepsin S)/Ki(calpain) ratio) [5] |
| --- | --- | --- | --- | --- | --- |
| NC(=O)C(=O)C(Cc1ccccc1)NC(=O)c1cccnc1-n1ccc(-c2ccccc2Cl)n1 (stereo not drawn) [Example 54, N-(3-Amino-1-benzyl-2,3-dioxopropyl)-2-[3-(2-chlorophenyl)-1H-pyrazol-1-yl]nicotinamide] | 40 to 100 nM | ++ (Ki(cathepsin B)/Ki(calpain) ratio of ≧30) | ++ (Ki(cathepsin K)/Ki(calpain) ratio of ≧30) | ++ (Ki(cathepsin L)/Ki(calpain) ratio of ≧50) | ++ (Ki(cathepsin S)/Ki(calpain) ratio of ≧100) |
| NC(=O)C(=O)C(Cc1ccccc1)NC(=O)c1cccnc1-n1ccc(-c2cccc(N3CCOCC3)c2)n1 (stereo not drawn) [Example 58, N-(3-Amino-1-benzyl-2,3-dioxopropyl)-2-[3-(3-morpholin-4-ylphenyl)-1H-pyrazol-1-yl]nicotinamide] | ≤ 40 nM | + (10≦Ki(cathepsin B)/Ki(calpain)<30) | + (10≦Ki(cathepsin K)/Ki(calpain)<30) | ++ (Ki(cathepsin L)/Ki(calpain) ratio of ≧50) | ++ (Ki(cathepsin S)/Ki(calpain) ratio of ≧100) |
| NC(=O)C(=O)C(Cc1ccc(Cl)cc1)NC(=O)c1cccnc1-n1ccc(-c2ccc(F)cc2)n1 (stereo not drawn) [Example 67, N-[3-Amino-1-(4-chlorobenzyl)-2,3-dioxopropyl]-2-[3-(4-fluorophenyl)-1H-pyrazol-1-yl]nicotinamide] | 40 to 100 nM | + (10≦Ki(cathepsin B)/Ki(calpain)<30) | + (10≦Ki(cathepsin K)/Ki(calpain)<30) | ++ (Ki(cathepsin L)/Ki(calpain) ratio of ≧50) | ++ (Ki(cathepsin S)/Ki(calpain) ratio of ≧100) |
| NC(=O)C(=O)C(Cc1ccccc1)NC(=O)c1cccnc1-n1ccc(-c2ccc(F)cc2Cl)n1 (stereo not drawn) [Example 71, N-(3-Amino-1-benzyl-2,3-dioxopropyl)-2-[3-(2-chloro-4-fluorophenyl)-1H-pyrazol-1-yl]nicotinamide] | 40 to 100 nM | ++ (Ki(cathepsin B)/Ki(calpain) ratio of ≧30) | ++ (Ki(cathepsin K)/Ki(calpain) ratio of ≧30) | ++ (Ki(cathepsin L)/Ki(calpain) ratio of ≧50) | ++ (Ki(cathepsin S)/Ki(calpain) ratio of ≧100) |
| NC(=O)C(=O)C(Cc1ccccc1)NC(=O)c1cccnc1-n1ccc(-c2ccccc2F)n1 (stereo not drawn) [Example 76, N-(3-Amino-1-benzyl-2,3-dioxopropyl)-2-[3-(2-fluorophenyl)-1H-pyrazol-1-yl]nicotinamide] | ≤ 40 nM | ++ (Ki(cathepsin B)/Ki(calpain) ratio of ≧30) | + (10≦Ki(cathepsin K)/Ki(calpain)<30) | ++ (Ki(cathepsin L)/Ki(calpain) ratio of ≧50) | ++ (Ki(cathepsin S)/Ki(calpain) ratio of ≧100) |
| NC(=O)C(=O)C(Cc1ccccc1)NC(=O)c1cccnc1-n1ccc(-c2ccc(Cl)cc2Cl)n1 (stereo not drawn) [Example 79, N-(3-Amino-1-benzyl-2,3-dioxopropyl)-2-[3-(2,4-dichlorophenyl)-1H-pyrazol-1-yl]nicotinamide] | 40 to 100 nM | ++ (Ki(cathepsin B)/Ki(calpain) ratio of ≧30) | ++ (Ki(cathepsin K)/Ki(calpain) ratio of ≧30) | ++ (Ki(cathepsin L)/Ki(calpain) ratio of ≧50) | ++ (Ki(cathepsin S)/Ki(calpain) ratio of ≧100) |

Now from value to compound, other results behind:

| Ki [1] | Sel cat. B (Ki(cathepsin B)/Ki(calpain) ratio) [2] | Sel cat. K (Ki(cathepsin K)/Ki(calpain) ratio) [3] | SMILES | Sel cat. L (Ki(cathepsin L)/Ki(calpain) ratio) [4] | Sel cat. S (Ki(cathepsin S)/Ki(calpain) ratio) [5] |
| --- | --- | --- | --- | --- | --- |
| ≤ 40 nM | + (10≦Ki(cathepsin B)/Ki(calpain)<30) | + (10≦Ki(cathepsin K)/Ki(calpain)<30) | NC(=O)C(=O)C(Cc1ccccc1)NC(=O)c1cccnc1-n1ccc(-c2cccs2)n1 (stereo not drawn) [Example 55, N-(3-Amino-1-benzyl-2,3-dioxopropyl)-2-[3-(2-thienyl)-1H-pyrazol-1-yl]nicotinamide] | ++ (Ki(cathepsin L)/Ki(calpain) ratio of ≧50) | ++ (Ki(cathepsin S)/Ki(calpain) ratio of ≧100) |
| 40 to 100 nM | + (10≦Ki(cathepsin B)/Ki(calpain)<30) | + (10≦Ki(cathepsin K)/Ki(calpain)<30) | NC(=O)C(=O)C(Cc1ccccc1)NC(=O)c1cccnc1-n1ccc(-c2ccc(C(F)(F)F)cc2)n1 (stereo not drawn) [Example 60, N-(3-Amino-1-benzyl-2,3-dioxopropyl)-2-{3-[4-(trifluoromethyl)phenyl]-1H-pyrazol-1-yl}nicotinamide] | ++ (Ki(cathepsin L)/Ki(calpain) ratio of ≧50) | + (50≦Ki(cathepsin S)/Ki(calpain)<100) |
| ≤ 40 nM | + (10≦Ki(cathepsin B)/Ki(calpain)<30) | + (10≦Ki(cathepsin K)/Ki(calpain)<30) | NC(=O)C(=O)C(Cc1ccccc1)NC(=O)c1cccnc1-n1cc2c(n1)-c1ccccc1CC2 (stereo not drawn) [Example 63, N-(3-Amino-1-benzyl-2,3-dioxopropyl)-2-(4,5-dihydro-2H-benzo[g]indazol-2-yl)nicotinamide] | ++ (Ki(cathepsin L)/Ki(calpain) ratio of ≧50) | ++ (Ki(cathepsin S)/Ki(calpain) ratio of ≧100) |
| 40 to 100 nM | + (10≦Ki(cathepsin B)/Ki(calpain)<30) | + (10≦Ki(cathepsin K)/Ki(calpain)<30) | NC(=O)C(=O)C(Cc1ccccc1)NC(=O)c1cccnc1-n1ccc(-c2ccc(N3CCCC3)cc2)n1 (stereo not drawn) [Example 69, N-(3-Amino-1-benzyl-2,3-dioxopropyl)-2-[3-(4-pyrrolidin-1-ylphenyl)-1H-pyrazol-1-yl]nicotinamide] | ++ (Ki(cathepsin L)/Ki(calpain) ratio of ≧50) | ++ (Ki(cathepsin S)/Ki(calpain) ratio of ≧100) |
| ≤ 40 nM | + (10≦Ki(cathepsin B)/Ki(calpain)<30) | + (10≦Ki(cathepsin K)/Ki(calpain)<30) | NC(=O)C(=O)C(Cc1ccccc1)NC(=O)c1cccnc1-n1ccc(-c2cccc(Cl)c2)n1 (stereo not drawn) [Example 70, N-(3-Amino-1-benzyl-2,3-dioxopropyl)-2-[3-(3-chlorophenyl)-1H-pyrazol-1-yl]nicotinamide] | ++ (Ki(cathepsin L)/Ki(calpain) ratio of ≧50) | ++ (Ki(cathepsin S)/Ki(calpain) ratio of ≧100) |
| 40 to 100 nM | + (10≦Ki(cathepsin B)/Ki(calpain)<30) | + (10≦Ki(cathepsin K)/Ki(calpain)<30) | NC(=O)C(=O)C(Cc1ccccc1)NC(=O)c1cccnc1-n1ccc(-c2ccccc2C(F)(F)F)n1 (stereo not drawn) [Example 72, N-(3-Amino-1-benzyl-2,3-dioxopropyl)-2-{3-[2-(trifluoromethyl)phenyl]-1H-pyrazol-1-yl}nicotinamide] | + (30≦Ki(cathepsin L)/Ki(calpain)<50) | ++ (Ki(cathepsin S)/Ki(calpain) ratio of ≧100) |
